Measured values taken from publication PMC9492542, “Brain-restricted mTOR inhibition with binary pharmacology” (Nature, 2022).
Values joined by “and” are separate entries in the source; they are usually repeats but may differ in a detail not shown here. Identical values can stand only once.

Legend:
K562 CRISPRi cells = experiment: Cellular dye (TAMRA) retention assay by flow cytometry; type: cell-based
Method: Untransduced (no virus or sgRNA^–) and sgRNA expression vector-transduced (sgRNA^+) K562 CRISPRi cells were mixed in a 1:1 ratio, plated in 48-well plates and incubated overnight. Cell mixtures were treated with the indicated TAMRA-linked compounds (300 μl final volume) and incubated for 24 h. Plates were placed over ice and 200 μl of each compound–cell mixture was transferred to a 96-well U-bottom plate. Cells were pelleted at 500g for 5 min and subsequently washed 2× with ice-cold FACS buffer (PBS + 1% BSA + 0.1% NaN3). Cells were resuspended in 200 μl of ice-cold FACS buffer and assessed using an Attune NxT (Thermo Fisher Scientific). Relative uptake of TAMRA-linked compounds was determined by comparing TAMRA fluorescence (561-nm excitation laser and 585/16-nm emission filter) between sgRNA^– and sgRNA^+ cells within each well.

human PBMCs [1] = experiment: Proliferation of anti-CD3/anti-CD28 stimulated PBMCs (120 h); type: cell-based; set-up: PBMC cell proliferation: unit not given here
human PBMCs [2] = experiment: IL-2 secretion of stimulated PBMCs (sandwich ELISA); type: cell-based; set-up: unit not given here
MTORC1 = conditions: read-out: Kd4 (drug binding to MTORC1 without FKBP); ref Banaszynski et al, PMID 15796538; cited from earlier work
[3] = Cellular activity of FKBP-binding bifunctional kinase inhibitors, with or without RapaBlock; type: cell-based
[4] = 0.005081 nM Rapamycin, +10 µM RapaBlock
[5] = 0.005081 nM Rapamycin, No RapaBlock
[6] = 0.015242 nM Rapamycin, +10 µM RapaBlock
[7] = 0.015242 nM Rapamycin, No RapaBlock
[8] = 0.045725 nM Rapamycin, +10 µM RapaBlock
[9] = 0.045725 nM Rapamycin, No RapaBlock
[10] = 0.137174 nM Rapamycin, No RapaBlock
[11] = 0.411523 nM Rapamycin, +10 µM RapaBlock
[12] = 0.411523 nM Rapamycin, No RapaBlock
[13] = 1.23457 nM Rapamycin, No RapaBlock
[14] = 3.7037 nM Rapamycin, +10 µM RapaBlock
[15] = 3.7037 nM Rapamycin, No RapaBlock
[16] = 11.1111 nM Rapamycin, +10 μM RapaBlock
[17] = 11.1111 nM Rapamycin, No RapaBlock
[18] = 33.3333 nM Rapamycin, +10 μM RapaBlock
[19] = 33.3333 nM Rapamycin, No RapaBlock
[20] = 100 nM Rapamycin, +10 μM RapaBlock

Question: With `CO[C@H]1C[C@@H](C)C/C(C)=C/[C@@H](CCCC(=O)N2CCN(C(=O)c3ccc(C(=O)[O-])c(-c4c5ccc(=[N+](C)C)cc-5oc5cc(N(C)C)ccc45)c3)CC2)C(=O)C[C@H](O)[C@@H](C)[C@@H](/C(C)=C/[C@@H]2CC[C@@H](O)[C@H](OC)C2)OC(=O)[C@@H]2CCCCN2C(=O)C(=O)[C@]2(O)O[C@H]1[C@@H](OC)C[C@H]2C` [FK-TAMRA] as the compound, how does the “Median TAMRA signal, fold change sgRNA+/sgRNA-” value (K562 CRISPRi cells; FKBP12 sg1, 1 nM compound) read?
Answer: The value was 0.94 ×.

Question: And the “Median TAMRA signal, fold change sgRNA+/sgRNA-” value (K562 CRISPRi cells; FKBP12 sg1, 100 nM compound)?
Answer: The value was 0.17 ×.

Question: And the “Median TAMRA signal, fold change sgRNA+/sgRNA-” value (K562 CRISPRi cells; FKBP12 sg2, 1 nM compound)?
Answer: Its value is 0.95 ×.

Question: What about the “Median TAMRA signal, fold change sgRNA+/sgRNA-” value (K562 CRISPRi cells; FKBP12 sg2, 100 nM compound) of the same compound?
Answer: Its value is 0.23 ×.

Question: And the “Median TAMRA signal, fold change sgRNA+/sgRNA-” value (K562 CRISPRi cells; NegCtrl sg, 1 nM compound)?
Answer: The value was 1.00 ×.

Question: And the “Median TAMRA signal, fold change sgRNA+/sgRNA-” value (K562 CRISPRi cells; NegCtrl sg, 100 nM compound)?
Answer: The value was 1.00 ×.

Question: Which “cellular retention (median fluorescence intensity)” value (K562 CRISPRi cells; after extensive washout) does the source give for `CO[C@H]1C[C@@H]2CC[C@@H](C)[C@@](O)(O2)C(=O)C(=O)N2CCCC[C@H]2C(=O)O[C@H]([C@H](C)C[C@@H]2CC[C@@H](OCCOCc3cn(CCOCCOCCOCCOCCOCCOCCOCCOCCNC(=O)c4ccc(C(=O)[O-])c(-c5c6ccc(=[N+](C)C)cc-6oc6cc(N(C)C)ccc56)c4)nn3)[C@H](OC)C2)CC(=O)[C@H](C)/C=C(\C)[C@@H](O)[C@@H](OC)C(=O)[C@H](C)C[C@H](C)/C=C/C=C/C=C/1C` [RapaTAMRA] here?
Answer: Its value is “tenfold increase in median fluorescence intensity”.

Question: With `CO[C@H]1C[C@@H]2CC[C@@H](C)[C@@](O)(O2)C(=O)C(=O)N2CCCC[C@H]2C(=O)O[C@H]([C@H](C)C[C@@H]2CC[C@@H](O)[C@H](OC)C2)CC(=O)[C@H](C)/C=C(\C)[C@@H](O)[C@@H](OC)C(=O)[C@H](C)C[C@H](C)/C=C/C=C/C=C/1C` [Rapamycin] as the compound, how does the PBMC cell proliferation (human PBMCs [1]; [4]) read?
Answer: Its PBMC cell proliferation is 90.8.

Question: What about the PBMC cell proliferation (human PBMCs [1]; [5]) of the same compound?
Answer: Its PBMC cell proliferation is 89.3 and 86.4 and 86.7.

Question: What about the PBMC cell proliferation (human PBMCs [1]; [6]) of the same compound?
Answer: Its PBMC cell proliferation is 94.6.

Question: And the PBMC cell proliferation (human PBMCs [1]; [7])?
Answer: The PBMC cell proliferation was 70.2 and 84.2 and 80.1.

Question: What about the PBMC cell proliferation (human PBMCs [1]; [8]) of the same compound?
Answer: The PBMC cell proliferation was 99.9.

Question: And the PBMC cell proliferation (human PBMCs [1]; [9])?
Answer: Its PBMC cell proliferation is 58.9 and 71.7 and 68.2.

Question: What about the PBMC cell proliferation (human PBMCs [1]; [10]) of the same compound?
Answer: The PBMC cell proliferation was 55.1 and 66 and 63.4.

Question: And the PBMC cell proliferation (human PBMCs [1]; [11])?
Answer: Its PBMC cell proliferation is 100.4.

Question: And the PBMC cell proliferation (human PBMCs [1]; [12])?
Answer: Its PBMC cell proliferation is 48.5 and 57.3 and 55.8.

Question: And the PBMC cell proliferation (human PBMCs [1]; [13])?
Answer: Its PBMC cell proliferation is 43.2 and 50.6 and 45.3.

Question: And the PBMC cell proliferation (human PBMCs [1]; [14])?
Answer: The PBMC cell proliferation was 92 and 97.7.

Question: And the PBMC cell proliferation (human PBMCs [1]; [15])?
Answer: The PBMC cell proliferation was 44.5 and 45.4 and 43.4.

Question: What about the PBMC cell proliferation (human PBMCs [1]; [16]) of the same compound?
Answer: Its PBMC cell proliferation is 99 and 90.8 and 96.3.

Question: What about the PBMC cell proliferation (human PBMCs [1]; [17]) of the same compound?
Answer: The PBMC cell proliferation was 42 and 45.8 and 42.6.

Question: What about the PBMC cell proliferation (human PBMCs [1]; [18]) of the same compound?
Answer: Its PBMC cell proliferation is 96.2 and 95.1 and 85.5.

Question: What about the PBMC cell proliferation (human PBMCs [1]; [19]) of the same compound?
Answer: Its PBMC cell proliferation is 41.2 and 44.7 and 42.3.

Question: And the PBMC cell proliferation (human PBMCs [1]; [20])?
Answer: Its PBMC cell proliferation is 73.2 and 69.6 and 68.3.

Question: What about the PBMC cell proliferation (human PBMCs [1]; 100 nM Rapamycin, No RapaBlock) of the same compound?
Answer: The PBMC cell proliferation was 32 and 34 and 31.5.

Question: What about the IL-2 secretion (human PBMCs [2]; [4]) of the same compound?
Answer: Its IL-2 secretion is 3684.01 and 3841.04 and 3311.59.

Question: What about the IL-2 secretion (human PBMCs [2]; [5]) of the same compound?
Answer: Its IL-2 secretion is 3505.26 and 3941.8 and 3950.69.

Question: And the IL-2 secretion (human PBMCs [2]; [6])?
Answer: The IL-2 secretion was 3960.64 and 4023.71 and 3669.35.

Question: And the IL-2 secretion (human PBMCs [2]; [7])?
Answer: Its IL-2 secretion is 3568.59 and 3802.04 and 3829.

Question: And the IL-2 secretion (human PBMCs [2]; [8])?
Answer: The IL-2 secretion was 3856.22 and 4056.95 and 3791.84.

Question: And the IL-2 secretion (human PBMCs [2]; [9])?
Answer: Its IL-2 secretion is 3351.9 and 3536.4 and 3552.37.

Question: What about the IL-2 secretion (human PBMCs [2]; 0.137174 nM Rapamycin, +10 µM RapaBlock) of the same compound?
Answer: The IL-2 secretion was 4033.13 and 3577.76 and 4020.83.

Question: And the IL-2 secretion (human PBMCs [2]; [10])?
Answer: The IL-2 secretion was 2937.87 and 3159.28 and 3403.45.

Question: What about the IL-2 secretion (human PBMCs [2]; [11]) of the same compound?
Answer: The IL-2 secretion was 4004.34 and 3499.5 and 3861.19.

Question: What about the IL-2 secretion (human PBMCs [2]; [12]) of the same compound?
Answer: Its IL-2 secretion is 2246.17 and 2618.32 and 2523.84.

Question: And the IL-2 secretion (human PBMCs [2]; 1.23457 nM Rapamycin, +10 µM RapaBlock)?
Answer: Its IL-2 secretion is 4301.65 and 4395.86 and 4103.8.

Question: And the IL-2 secretion (human PBMCs [2]; [13])?
Answer: Its IL-2 secretion is 1538.76 and 1946.24 and 1803.35.

Question: What about the IL-2 secretion (human PBMCs [2]; [14]) of the same compound?
Answer: Its IL-2 secretion is 4066.89 and 3684.01 and 4230.73.

Question: What about the IL-2 secretion (human PBMCs [2]; [15]) of the same compound?
Answer: The IL-2 secretion was 1476.21 and 1624.34 and 1751.53.

Question: And the IL-2 secretion (human PBMCs [2]; [16])?
Answer: The IL-2 secretion was 4063.23 and 3946.51 and 4144.88.

Question: And the IL-2 secretion (human PBMCs [2]; [17])?
Answer: The IL-2 secretion was 1251.92 and 1234.65 and 1398.74.

Question: And the IL-2 secretion (human PBMCs [2]; [18])?
Answer: The IL-2 secretion was 4013.77 and 3518.61 and 4247.74.

Question: And the IL-2 secretion (human PBMCs [2]; [19])?
Answer: Its IL-2 secretion is 908.82 and 1132.58 and 1090.71.

Question: And the IL-2 secretion (human PBMCs [2]; [20])?
Answer: The IL-2 secretion was 4023.19 and 3609.68 and 3592.67.

Question: What about the IL-2 secretion (human PBMCs [2]; 100 nM Rapamycin, No RapaBlock) of the same compound?
Answer: Its IL-2 secretion is 580.372 and 339.335 and 575.923.

Question: And the Kd (MTORC1)?
Answer: The Kd was 26 µM.

Question: With `CCC(C)(C)C(=O)C(=O)N1CCCC[C@H]1C(=O)O[C@H](CCc1ccc(OC)c(OC)c1)c1cccc(NC(=O)CCC(=O)N2CCN(c3cc(Nc4ncc(C(=O)Nc5c(C)cccc5Cl)s4)nc(C)n3)CC2)c1` [SLF-Dasatinib] as the compound, how does the “kinase inhibitor activity in cells” value [3] read?
Answer: Its value is “did not have kinase inhibitor activity in cells”.
